Assay results as given in patent US20060167083A1, “Therapeutic methods and compositions involving isoflav-3-ene and isoflavan structures” (priority 2002, published 2006).
“Also recorded” adds a separate entry of the source.

Experiments:
human topo I = target: T1, human topo I (Homo sapiens, UniProt P11387); test: Topo I-mediated plasmid relaxation assay; assay type: biochemical; details: concentrations up to 100 μg/ml, absence of ATP
T1 construct: purchased Topogen (Columbus, Ohio)
T1 sequence (P11387 1-765): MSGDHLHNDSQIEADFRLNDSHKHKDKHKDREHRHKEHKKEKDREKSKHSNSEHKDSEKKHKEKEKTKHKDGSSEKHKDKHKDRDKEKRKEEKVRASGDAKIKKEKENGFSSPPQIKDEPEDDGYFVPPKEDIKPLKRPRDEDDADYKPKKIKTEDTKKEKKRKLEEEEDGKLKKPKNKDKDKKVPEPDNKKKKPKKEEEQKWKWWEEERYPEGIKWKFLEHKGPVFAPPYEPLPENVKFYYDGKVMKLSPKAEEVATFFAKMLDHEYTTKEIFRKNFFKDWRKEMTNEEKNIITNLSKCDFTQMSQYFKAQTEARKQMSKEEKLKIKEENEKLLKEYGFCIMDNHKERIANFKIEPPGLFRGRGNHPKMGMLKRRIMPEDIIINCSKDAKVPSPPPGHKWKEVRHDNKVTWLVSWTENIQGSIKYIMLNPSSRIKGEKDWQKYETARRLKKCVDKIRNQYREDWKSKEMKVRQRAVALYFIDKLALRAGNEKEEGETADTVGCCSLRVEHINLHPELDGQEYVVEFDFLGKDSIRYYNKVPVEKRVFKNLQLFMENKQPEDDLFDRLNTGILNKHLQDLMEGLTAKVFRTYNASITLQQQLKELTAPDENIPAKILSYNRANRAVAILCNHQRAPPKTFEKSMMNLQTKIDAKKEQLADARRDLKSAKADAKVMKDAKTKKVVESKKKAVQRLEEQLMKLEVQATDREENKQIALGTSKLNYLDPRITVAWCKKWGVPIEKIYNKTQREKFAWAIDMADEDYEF
Procedure: Topo I activity was determined by converting supercoiled pUC8 DNA (SC) into its relaxed from (REL).
For the determination of topoisomerase (topo) I catalytic activity, pUC8 DNA was used as the substrate in a reaction volume of 20 μl containing the following: 10 mM Tris-HCl, pH 7.9, 1 mM EDTA, 150 mM NaCl, 0.1% BSA, 0.1 mM spermidine, 5% glycerol, and 2 units of purified human topo I. The inhibitor, when applicable, was added as indicated, and the reaction was initiated by the addition of the enzyme. Reactions were carried out at 37° C. for 30 min. Gel electrophoresis was performed at 4 V/cm for 5 h in Tris-borate-EDTA buffer. For the quantitative determination of topo I activity, photographic negatives were scanned. The area representing supercoiled DNA, migrating as a single band at the bottom of the gel, was determined. The concentrations of the inhibitor that prevented 50% of the supercoiled DNA from being converted into relaxed DNA (IC50 values) were determined by averaging the data from at least three experiments.

human topo II = target: T2, human topo II (Homo sapiens, UniProt P11388); test: Topo II-mediated plasmid linearisation assay; assay type: biochemical
T2 construct: purchased Topogen (Columbus, Ohio)
Procedure: FIG. 3 represents an assay for determining the effect of dehydroequol on double-stranded DNA cleavage. pRYG DNA was incubated with ten units of human topo II (lanes 2-6) in the absence (lane 1) or presence of 10, 30, or 100 μg/ml dehydroequol (lanes 2-4), or 30 μg/ml genistein (lane 5), or 10 μg/ml VP-16 (lane 6). Lane 7, linear pUC8 DNA marker. Double-strand DNA breakage was determined by converting relaxed (REL) or supercoiled (SC) pRYG DNA to the linear (LIN) form.
A linearisation assay was employed to determine if dehydroequol is a topo II poison. Double-strand breakage results in the appearance of linear DNA. […] This effect, which was evident at 10 μg/ml, peaked at 30 μg/ml.
Topo II poisons enhance topo II-mediated DNA cleavage and can be identified with the linearisation assay under the reaction conditions provided by the supplier of the enzyme (Topogen, Inc.). Briefly, 20-μl reaction mixtures contained 30 mM Tris-HCl, pH 7.6, 3 mM ATP, 15 mM β-mercaptoethanol, 8 mM MgCl2, 60 mM NaCl, 1 μl of the test agent (or solvent), 0.3 μg of pRYG, and 10 units of human topo II (added last). After a 15-min incubation at 37° C., SDS-proteinase K was added, and following a 15 min incubation at 37° C., samples were extracted with CHCl3-isopropanol and electrophoresis was performed on a 1% agarose gel containing ethidium bromide. Gels were photographed, and photographic negatives were scanned.

[1] = test system: Human umbilical vein endothelial cells (HUVEC); test: In vitro capillary tube formation assay in collagen gel; assay type: cell-based; details: 10 μg/ml, PMA and RMACII present
Procedure: In vitro tube assay: Capillary tube formation in a collagen gel was performed essentially as described by Gamble et al^30,31. Tubes were formed in the presence of the tumour promoter phorbol myristate acetate (PMA) and the anti β1 integrin antibody RMACII. De (10 μg/ml final) was added at the time of plating the cells onto the gel.

T2 sequence (P11388 whole entry): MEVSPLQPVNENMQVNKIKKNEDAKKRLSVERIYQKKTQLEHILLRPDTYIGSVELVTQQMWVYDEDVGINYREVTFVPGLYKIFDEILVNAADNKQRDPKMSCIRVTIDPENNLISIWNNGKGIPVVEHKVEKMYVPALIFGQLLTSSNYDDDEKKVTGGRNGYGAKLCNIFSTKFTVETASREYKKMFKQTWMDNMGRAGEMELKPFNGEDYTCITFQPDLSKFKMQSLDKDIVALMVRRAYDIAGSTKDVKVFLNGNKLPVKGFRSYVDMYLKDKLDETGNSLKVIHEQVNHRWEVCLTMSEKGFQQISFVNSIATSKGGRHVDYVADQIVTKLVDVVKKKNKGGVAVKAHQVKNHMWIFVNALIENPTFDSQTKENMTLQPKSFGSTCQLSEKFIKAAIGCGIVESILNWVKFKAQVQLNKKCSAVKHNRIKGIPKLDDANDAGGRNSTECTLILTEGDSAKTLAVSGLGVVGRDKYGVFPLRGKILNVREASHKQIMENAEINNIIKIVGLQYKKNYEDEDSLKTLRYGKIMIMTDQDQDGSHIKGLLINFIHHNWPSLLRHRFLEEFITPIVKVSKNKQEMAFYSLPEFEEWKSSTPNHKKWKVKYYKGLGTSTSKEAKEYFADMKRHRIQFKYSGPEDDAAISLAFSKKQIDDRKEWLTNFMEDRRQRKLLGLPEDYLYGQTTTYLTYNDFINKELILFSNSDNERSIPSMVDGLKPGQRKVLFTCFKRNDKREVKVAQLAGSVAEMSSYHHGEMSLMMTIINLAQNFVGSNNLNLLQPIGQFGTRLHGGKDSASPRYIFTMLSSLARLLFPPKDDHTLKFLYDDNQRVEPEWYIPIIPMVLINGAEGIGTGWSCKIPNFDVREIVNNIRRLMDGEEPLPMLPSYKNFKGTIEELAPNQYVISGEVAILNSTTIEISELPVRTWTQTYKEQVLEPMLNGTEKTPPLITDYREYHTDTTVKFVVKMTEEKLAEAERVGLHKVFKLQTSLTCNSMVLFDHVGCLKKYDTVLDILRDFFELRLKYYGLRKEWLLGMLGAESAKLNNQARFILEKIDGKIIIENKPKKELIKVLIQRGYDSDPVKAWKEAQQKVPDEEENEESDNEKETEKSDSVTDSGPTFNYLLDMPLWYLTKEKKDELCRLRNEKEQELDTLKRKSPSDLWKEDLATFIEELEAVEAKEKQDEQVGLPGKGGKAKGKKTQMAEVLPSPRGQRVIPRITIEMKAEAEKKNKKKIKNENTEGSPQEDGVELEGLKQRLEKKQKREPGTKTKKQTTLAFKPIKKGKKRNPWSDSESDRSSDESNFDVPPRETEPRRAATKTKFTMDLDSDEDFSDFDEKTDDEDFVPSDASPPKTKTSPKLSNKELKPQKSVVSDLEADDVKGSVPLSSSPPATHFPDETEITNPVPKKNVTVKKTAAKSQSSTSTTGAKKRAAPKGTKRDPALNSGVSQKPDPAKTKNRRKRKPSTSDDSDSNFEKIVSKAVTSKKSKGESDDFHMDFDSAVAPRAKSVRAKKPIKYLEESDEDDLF

Structure (SMILES): Oc1ccc(C2=Cc3ccc(O)cc3OC2)cc1 [Dehydroequol, 4′,7-dihydroxyisoflav-3-ene]
- inhibition of topo I-catalysed relaxation of pUC8 DNA (human topo I): did not inhibit
- concentration producing detectable (comparable) topo II-mediated linear plasmid DNA (human topo II): 20 µg/mL
- effect on topo II-mediated DNA strand breakage compared with positive controls (human topo II; genistein 30 μg/ml, VP-16 10 μg/ml): much greater than genistein; also recorded: comparable to VP-16
- concentration at which production of linear plasmid DNA peaked (human topo II; pRYG DNA, proteinase K/SDS): 30 µg/mL
- concentration at which production of linear plasmid DNA was evident (human topo II; pRYG DNA, proteinase K/SDS): 10 µg/mL
- inhibition of capillary tube formation [1]: inhibits
